SMILES strings stand for the structures.

A short description of the series: Fluorescence quenching of n-AS probes in MLVs of EPC (drug location). In kind it is physicochemical. Conditions: MLVs of EPC labeled with n-AS probes. Here is the method:
Three independent experiments were carried out.
This type of fluorescence quenching can be described by the Stern-Volmer linear plots (Equation 5 and Figures 7A,B) where the fluorescence emission intensities of the labeled nanocarrier in the absence (I0) and in the presence (I) of the quencher (drugs) are plotted against the quencher concentration [Q] and it is possible to obtain linear relations in which the intercept is zero and the slope corresponds to Stern-Volmer constant, KSVapp (Lakowicz, [2014]):
The Stern-Volmer plots of the fluorescence quenching provoked by increasing concentrations of Indomethacin are not linear and present positive deviations (Figure 7C). Positive deviations from the Stern-Volmer equation are often observed when the extent of quenching is large and these deviations from linearity indicate that the quenching mechanism cannot be explained solely by a collisional mechanism (Lakowicz, [2014]). There is an apparent static quenching component caused by the close proximity of deactivating drug and fluorophore at excitation moment. The quenching is still collisional, but the existence of fluorophores and quenchers located very close to each other causes an immediate fluorescence deactivation and therefore the fluorophore and the drug appear to form non-fluorescent complexes (Lakowicz, [2014]). This type of fluorescence quenching is usually interpreted in terms of a “sphere of action” (Equation 7) within which the possibility of deactivation is equal to unity (Lakowicz, [2014]).
(7) I0/I=(1+KSVapp[Q])e^[Q]Vapp
By representing graphically I0/(Ie^[Q]Vapp) as a function of [Q], linear relations were obtained in which the slope corresponds to KSVapp (Figure 7D). Thus, Indomethacin quenching efficiency followed approximately the same order as that obtained for Acemetacin: 2-AS < 6-AS < 9-AS < 12-AS.
For the compound `COc1ccc2c(c1)c(CC(=O)O)c(C)n2C(=O)c1ccc(Cl)cc1` [Indomethacin], the “Drug location within the lipid nanocarrier inferred from Kqapp” value was “able to reach a more inner location within the lipid nanocarrier”.
In the case of `Cc1ccc(C(=O)c2ccc(CC(=O)O)n2C)cc1` [Tolmetin] it was “preferential location of Tolmetin at the polar headgroup region of the lipid nanocarriers”.
Regarding `COc1ccc2c(c1)c(CC(=O)OCC(=O)O)c(C)n2C(=O)c1ccc(Cl)cc1` [Acemetacin], the “Drug location within the lipid nanocarrier inferred from Kqapp” value was “can reach an inner location at the lipid nanocarrier”.

(Values after article PMC6080416, “Spectroscopic Studies as a Toolbox for Biophysical and Chemical Characterization of Lipid-Based Nanotherapeutics” (Frontiers in Chemistry, 2018).)
